Consider 16 molecules from article PMC11301271 (FEBS Open Bio, 2024).

Test [1] concerns the target T1, human MK (Homo sapiens, UniProt Q03426).
T1 construct: His6 (N); made in house; host or cells: E. coli BL21(DE3)
The experiment in a line: Steady-state kinetics of human MK (Michaelis-Menten, substrates). The test is classed as biochemical. The conditions noted are these: one substrate varied, the other fixed at 5 mM; 32 °C; read-out: Km of recombinant MK for the substrate.

Test [2] concerns the target T1, human MK. The experiment in a line: MK coupled enzyme assay (pyruvate kinase/lactate dehydrogenase): inhibitor screening and IC50. To be noted: for IC50: read-out: IC50 for MK inhibition; for MK inhibition, result in words: screening, 10 μM compound. Format: biochemical. Here is the method: A pET‐15b plasmid encoding human MK (UniProt Q03426) with an N‐terminal His6‐tag was transformed into E. coli BL21(DE3) cells (New England Biolabs, Whitby, ON, Canada). The cells were cultured in LB at 37 °C until the OD600 of the culture reached 0.6. Expression of the recombinant enzyme was induced by 0.1 mM IPTG for 6 h at 37 °C. The cells were lysed by sonication, and the lysate was subjected to Ni‐affinity chromatography (HisTrap HP, Cytiva, Vancouver, BC, Canada) followed by size exclusion chromatography (HiLoad Superdex 200 PG, Cytiva) (Fig. 2A). […] The purified enzyme was flash‐frozen in liquid nitrogen and stored at −80 °C. The final sample buffer (i.e., the size exclusion buffer) consisted of 10 mM HEPES (pH 7.5), 500 mM NaCl, 2 mM β‐mercaptoethanol, and 5% glycerol.
(§1) MK activity was measured by using a coupled enzyme assay as previously described. The reporter enzymes, pyruvate kinase and lactate dehydrogenase, were purchased as a pre‐mixed buffered solution from MilliporeSigma. […] All reactions were carried out at 32 °C in triplicate unless otherwise noted. Each reaction was initiated by adding 10 μL of MK (50 μg mL^−1; diluted from the −80 °C stock in 50 mM HEPES, pH 7.5) to 990 μL of the reaction buffer containing all the other components except MK (pre‐incubated at 32 °C for 5 min) and immediately transferring to a 1 mL disposable polystyrene cuvette (Fisherbrand) pre‐placed in the temperature‐controlled cell holder of an Agilent 8453 UV–visible Spectroscopy System. Blank reactions were added with 10 μL of 50 mM HEPES (pH 7.5) only. Reaction progress was continuously monitored by measuring the A340 for 1 min. To convert the measured absorbance to product concentration, an absorption coefficient of NADH determined from a calibration curve (5.4107 cm^−1 mM ^−1) was used. Initial rate experiments were conducted by varying the concentration of one substrate while keeping the other at a saturating concentration of 5 mM. Kinetic parameters were determined by fitting the rate data to the Michaelis–Menten model (Eqn 1), vi=VmaxS/Km+S, where [S] represents the concentration of the varied substrate. Data analysis was performed with […] PRISM software (GraphPad Software, Boston, MA, USA).
To prepare master stock solutions, the phosphonate compounds were dissolved in Milli‐Q water to a concentration of 20 mM, either as monosodium salts (monophosphonate compounds) or as trisodium salts (bisphosphonate compounds). Their effects on MK activity were evaluated by using the coupled enzyme assay described above. Each compound was tested at two concentrations: 1 and 10 μM.
To determine the IC 50, a more refined inhibition response across a broader range of inhibitor concentrations was measured. Typically, nine different inhibitor concentrations spanning a 10 000‐fold concentration range were used. Dose–response curves were generated by fitting the inhibition data to the following three‐parameter dose–response equation (Eqn 2), where Max and Min denote the maximum and minimum response, respectively: Response=Min+Max−Min/1+I/IC50.

In test [3] the target is T2, FPPS (Homo sapiens, UniProt P14324).
T2 sequence (P14324 1-419): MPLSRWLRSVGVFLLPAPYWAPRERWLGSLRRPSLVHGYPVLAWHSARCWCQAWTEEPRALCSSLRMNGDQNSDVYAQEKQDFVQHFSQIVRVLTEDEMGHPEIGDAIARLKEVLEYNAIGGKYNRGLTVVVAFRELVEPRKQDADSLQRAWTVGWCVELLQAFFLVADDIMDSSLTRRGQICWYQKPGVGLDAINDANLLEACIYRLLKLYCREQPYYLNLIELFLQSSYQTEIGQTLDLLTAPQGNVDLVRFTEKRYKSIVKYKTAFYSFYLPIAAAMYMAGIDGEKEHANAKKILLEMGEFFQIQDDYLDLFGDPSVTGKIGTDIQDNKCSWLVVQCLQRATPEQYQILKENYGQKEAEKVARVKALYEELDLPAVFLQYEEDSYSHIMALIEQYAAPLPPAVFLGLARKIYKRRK
To be noted: read-out: Kd, binding affinity of FPP for FPPS; ref [21]; cited from earlier work.

The target of test [4] is T1, human MK. The experiment in a line: Mode of inhibition and Ki determination, initial rate experiments with MK. To be noted: for Ki' (ATP-bound enzyme), mixed inhibition model with respect to ATP: ATP varied 0.05-1 mM, MVA 5 mM; for Ki', uncompetitive inhibition model with respect to MVA: MVA varied 0.01-0.2 mM, ATP 5 mM. Format: biochemical. Here is the method:
as §1
In all experiments, one substrate was added at a constant concentration of 5 mM. […] Each inhibitor was tested at four different concentrations ranging from 0 to 200 nM. Data analysis was performed with […] PRISM software. The initial rates were fitted to steady‐state equations describing competitive inhibition model (Eqn 3), vi=VmaxS/Km1+I/Ki+S, noncompetitive inhibition model (Eqn 4), vi=VmaxS/1+I/Ki/Km+S, uncompetitive inhibition model (Eqn 5), vi=VmaxS/1+I/Ki^′/Km/1+I/Ki^′+S, and mixed inhibition model (Eqn 6), vi=VmaxS/1+I/Ki^′/Km1+I/Ki/1+I/Ki^′+S, where [S] represents the concentration of the varied substrate. The selection of the most appropriate models was determined through the extra sum‐of‐squares F test as implemented in the software.

Test [5] addresses T2, FPPS. The experiment in a line: Inhibition of FPPS. The test is classed as biochemical. To be noted: read-out: inhibition of FPPS at 10 μM; 10 μM compound; unpublished data.
The target in test [6] is T1, human MK. Details: method as in PMID 9325256, PMID 18302342. The conditions noted are these: ref [19], [20]; read-out: Km of MK for the substrate, previously reported; cited from earlier work.

Each structure is given as a SMILES string. “And” between values parts separate entries of the source, which are not always exact repeats. Equal entries are not always repeated. Where two headings read alike, the source gives them in different places.

T1 sequence (Q03426 whole entry): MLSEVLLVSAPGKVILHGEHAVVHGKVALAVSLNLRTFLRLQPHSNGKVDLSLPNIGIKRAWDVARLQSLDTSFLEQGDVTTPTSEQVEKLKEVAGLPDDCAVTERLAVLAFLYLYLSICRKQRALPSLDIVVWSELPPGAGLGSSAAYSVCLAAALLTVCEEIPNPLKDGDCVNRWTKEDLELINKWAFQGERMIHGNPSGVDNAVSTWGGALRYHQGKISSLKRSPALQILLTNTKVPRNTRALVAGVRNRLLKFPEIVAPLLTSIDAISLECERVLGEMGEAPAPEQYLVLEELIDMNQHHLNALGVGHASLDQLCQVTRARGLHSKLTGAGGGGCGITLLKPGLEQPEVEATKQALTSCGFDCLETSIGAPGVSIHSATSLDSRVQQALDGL

The term Km denotes the concentration of substrate that gives half-maximal velocity. Take `Nc1ncnc2c1ncn2[C@@H]1O[C@H](COP(=O)(O)OP(=O)(O)OP(=O)(O)O)[C@@H](O)[C@H]1O` [ATP]: the Km on human MK [1] was found to be 61 µM.

A word on the inhibition: it is the drop in the measured response relative to a control, in per cent. Consider `CC(C)=CCC/C(C)=C/CC/C(C)=C/COP(=O)(O)OP(=O)(O)O` [FPP, farnesyl pyrophosphate, reference compound], for which the inhibition at 1 µM at human MK [2] (read-out: inhibition of the MK reaction at 1 μM) came out at 96%.

The IC50 is the point on the concentration scale where inhibition reaches its midpoint. By Kd is commonly meant the constant that tells how readily two partners part at equilibrium. As to `CC(C)=CCC/C(C)=C/CC/C(C)=C/CO[P@@](=O)(O)OP(=O)(O)O` (stereo in doubt) [FPP, farnesyl pyrophosphate, reference compound], the IC50 at human MK [2] turned out to be 12 nM. Moreover, at FPPS [3], the Kd is 5000 to 6000 nM.

As to `O=P(O)(O)C(Nc1ncnc2sc(-c3cccc(C(F)(F)F)c3)cc12)c1ccccc1` (stereo not drawn) [Compound 14, (phenyl((6‐(3‐(trifluoromethyl)phenyl)thieno[2,3‐d]pyrimidin‐4‐yl)amino)methyl)phosphonic acid], the IC50 on human MK [2] was 120 nM.

Take `COc1cccc(OC)c1-c1cc2c(NC(c3ccccc3)P(=O)(O)O)ncnc2s1` (stereo not drawn) [Compound 13, (((6‐(2,6‐dimethoxyphenyl)thieno[2,3‐d]pyrimidin‐4‐yl)amino)(phenyl)methyl)phosphonic acid]: the IC50 on human MK [2] was 3300 nM.

With `Cc1ccc(-c2cc3c(NC(Cc4cccc(F)c4)P(=O)(O)O)ncnc3s2)cc1OCC(C)C` (stereo not drawn) [Compound 9, (2‐(3‐Fluorophenyl)‐1‐((6‐(3‐isobutoxy‐4‐methylphenyl)thieno[2,3‐d]pyrimidin‐4‐yl)amino)ethyl)phosphonic acid], on human MK [2], the IC50 was found to be 1000 nM.

A word on the Ki: it is a measure of affinity in units of concentration, obtained from inhibition or displacement. With `O=P(O)(O)C(Nc1ncnc2sc(-c3ccc(C(F)(F)F)cc3)cc12)c1ccccc1` (stereo not drawn) [Compound 11, (phenyl((6‐(4‐(trifluoromethyl)phenyl)thieno[2,3‐d]pyrimidin‐4‐yl)amino)methyl)phosphonic acid], the IC50 at human MK [2] was determined as 42 nM. In addition, on human MK [4], the inhibitory constant (Ki) stood at 22 nM; the “Ki' (ATP-bound enzyme), mixed inhibition model with respect to ATP” value is on record as 380 nM; the “Ki', uncompetitive inhibition model with respect to MVA” value worked out at 140 nM. The “Ki'/Ki ratio” value on human MK [4] (ATP as varied substrate, mixed inhibition model) is ~ 17. In addition, on FPPS [5], the inhibition at 10 µM was below 50%.

For the molecule `C[C@@](O)(CCO)CC(=O)O` [MVA, mevalonic acid], the Km is 37 µM at human MK [1]; 24 µM and 40.8 µM on human MK [6].

As to `COc1cc(C)c(F)cc1-c1cc2c(NC(c3ccccc3)P(=O)(O)O)ncnc2s1` (stereo not drawn) [Compound 15], the IC50 on human MK [2] stood at 2300 nM.

In the case of `Cn1cc(CCP(=O)(O)O)c2cc(-c3ccc(C(F)(F)F)cc3)ccc21` [Compound 16, 2‐(1‐Methyl‐5‐(4‐(trifluoromethyl)phenyl)‐1H‐indol‐3‐yl)ethylphosphonic acid], the IC50 on human MK [2] was determined as 8.1 nM. Further, at human MK [4], the inhibition constant (Ki) amounted to 3.1 nM; the “Ki' (ATP-bound enzyme), mixed inhibition model with respect to ATP” value came out at 14 nM; the “Ki', uncompetitive inhibition model with respect to MVA” value is 10 nM. At FPPS [5], the inhibition at 10 µM is below 50%.

For the molecule `O=P(O)(O)C(Nc1ncnc2sc(-c3cccc(C(F)(F)F)c3)cc12)P(=O)(O)O` [Compound 17], the “MK inhibition, result in words” value at human MK [2] is “Inactive at 10 μM”.

Turning to `O=P(O)(O)C(Nc1ncnc2sc(-c3ccc(F)cc3)cc12)c1ccccc1` (stereo not drawn) [Compound 12, (((6‐(4‐fluorophenyl)thieno[2,3‐d]pyrimidin‐4‐yl)amino)(phenyl)methyl)phosphonic acid], the IC50 on human MK [2] amounted to 46 nM.

Take `COc1cc(C)c(Cl)cc1-c1cc2c(NC(c3ccccc3)P(=O)(O)O)ncnc2s1` (stereo not drawn) [Compound 2]: the IC50 on human MK [2] stood at 1900 nM.

For the molecule `Cc1ccc(-c2cc3c(NC(Cc4ccccc4)P(=O)(O)O)ncnc3s2)cc1OC1CC1` (stereo not drawn) [Compound 10, (1‐((6‐(3‐Cyclopropoxy‐4‐methylphenyl)thieno[2,3‐d]pyrimidin‐4‐yl)amino)‐2‐phenylethyl)phosphonic acid], the IC50 at human MK [2] is 1600 nM.

Turning to `O=P(O)(O)CNc1ncnc2sccc12` [Compound 1], the “MK inhibition, result in words” value at human MK [2] is given as “Inactive at 10 μM”.

Take `Cc1ccc(-c2cc3c(NC(Cc4ccccc4)P(=O)(O)O)ncnc3s2)cc1Cl` (stereo not drawn) [Compound 6]: on human MK [2], the IC50 amounted to 2500 nM.
